Converted amounts (≈) assume the structure as drawn.
Key:
[1] = solubility in M. tuberculosis 7H9 growth medium; assay type: physicochemical; conditions: Mtb 7H9 growth medium
Description: Prior to biological evaluation of the tdDCC hits, we tested their solubility in a standard buffer as well as in M. tuberculosis 7H9 growth medium. […] Regrettably, with 3.3 μM the least soluble compound is E1, making our most amplified and promising compound unsuitable for biological evaluation. We assessed the solubility in Mtb growth medium given that it is a complex, nutrient-rich environment with a distinct solubility profile. However, the trend continued, only seven hits are soluble at 8 μM or above, the remaining five compounds, including E1, were not eligible for antitubercular activity testing (Table 1).
Determination of in vitro anti-tubercular activity and solubility in 7H9 medium Anti-tubercular tests were performed as previously described .1 In brief, 7H9 complete medium (BD Difco; Becton Dickinson, Maryland,USA) supplemented with 10% OADC (BD), 0.2% glycerol, and 0.05% Tween80 as previously described ,3 was used to culture Mycobacterium tuberculosis (Mtb) strain H37Rv (ATCC 25618) carrying a mCherry -expressing plasmid (pCherry10 ).4 Cultures were harvested at mid-log phase and frozen in aliquots at – 80 °C. Prior to testing aliquots were thawed followed by centrifugation and the pellet was resuspended in 7H9 medium with 10% OADC (without glycerol and Tween80). This was further thoroughly resuspended by passing it through a syringe with a 26 -gauge needle to avoid clumping of the bacteria. 2×10^5 CFU (colony forming units) were then cultured in a total volume of 100 μl culture medium (triplicates) to test the non-precipitating compounds for the anti-tubercular activity at the concentrations indicated. For these assays, 96-well flat clear bottom black polystyrene microplates (Corning® CellBIND®, Merck, New York, USA) wer e used. Each plate had Rifampicin (at 1 μg/ml and 0.1 μg/ml) (National Reference Center, Borstel) as a reference compound. Plates were sealed with an air -permeable membrane (Porvair Sciences, Wrexham, UK) in a 37 °C incubator with mild agitation (TiMix5, Edmund Bühler, Germany). The activity of compounds was determined after 7 days by measuring the bacterial growth as relative light units (RLU) from the fluorescence intensity obtained at an excitation wavelength of 575 nm and an emission wavelength of 635 n m in a microplate reader (Synergy 2, BioTek Instruments, Vermont, USA). Two independent experiments (each in triplicates) were performed, and all values were normalized to untreated control sample (100%) in each experiment.
To obtain information regarding the toxicity of our compounds, their impact on the viability of human cells was investigated. HepG2 cells (2x10^4 cells per well) were seeded in 96 -well, flat-bottomed culture plates in 100 µL culture medium (DMEM containing 10% fetal calve serum, 1% penicillin -streptomycin). Twenty-four hours after seeding the cells, medium was removed and replaced by medium containing test compounds in a final DMSO concentration of 1%. Compounds were tested in duplicates at a single concentration or, for CC50 determination, at 8 concentrations that were prepared via 2 -fold serial dilutions in 1% DMSO/medium. Epirubicin and doxorubicin were used as positive controls in serial dilutions starting from 10 µM, and rifampicin was used as a negative control (at 100 µM). The living cell mass was determined 48 h after treatment with compounds by adding 0.1 volumes of 3 -(4,5-dimethylthiazol-2-yl)-2,5-diphenyltetrazolium bromide (MTT) solution (5 mg/mL sterile PBS) (Sigma, St. Louis, MO) to the wells. After incubating the cells for 30 min at 37 °C (atmosphere containing 5% CO2), medium was removed and MTT crystals were dissolved in 75 µL of a solution containing 10% SDS and 0.5% acetic acid in DMSO. The optical density (OD) of the samples was determined photometrically at 570 nm in a PHERAstar Omega plate reader (BMG labtech, Ortenberg, Germany). To obtain percent viability for each sample, their ODs were related to those of DMSO controls. […]

MtbIspE [2] = molecular target: T1, MtbIspE (Mycobacterium tuberculosis, UniProt P9WKG7); assay: MtbIspE binding study via MicroScale Thermophoresis (MST); conditions: MST, 20 μM ligand, 200 nM MtbIspE, triplicate; qualitative
MtbIspE [3] = molecular target: T1, MtbIspE; assay: MtbIspE binding study via thermal shift assay; conditions: read-out: MtbIspE ΔTm at 20 μM
EcTolC = assay: microbe, parasite or virus in culture; assay type: cell-based; conditions: Escherichia coli, 18 h, LB medium, read-out: EcTolC %inh. At 50 μM
EcK12 = assay: E. coli growth inhibition, wild-type strain K12; assay type: cell-based, Escherichia coli; conditions: Escherichia coli, 18 h, LB medium, read-out: EcK12 %inh. At 50 μM
HepG2 cells = conditions: read-out: HepG2 CC50; HepG2, 48 h, MTT
physchem = conditions: aqueous with cosolvent or surfactant or cyclodextrin, kinetic from dmso stock, solubility 5% DMSO in PBS
in vitro = conditions: human, HepG2 CC50, HepG2, 48 h, MTT
MtbIspE [4] = molecular target: T1, MtbIspE; assay: target-directed dynamic combinatorial chemistry (tdDCC), amplification of acylhydrazones in protein-templated vs blank DCL (HPLC-MS/MS, UV 310 nm); assay type: binding; conditions: DCL-3, 24 h, 40 mol % MtbIspE; I1 and K1 integrated as one cluster
Description: In this study, we used MtbIspE as target protein and the reversible reaction of hydrazides and aldehydes to form dynamic combinatorial libraries (DCLs) of acylhydrazones. […] To accelerate the reaction at neutral pH, aniline was used as nucleophilic catalyst activating the aldehydes.[2],[4],[19] We analyzed the protein’s effect on the DCLs by comparing HPLC-MS/MS data of blank vs protein-templated (PT) experiments. The experiments spanned 3 days, with periodic sampling (every 2 h, followed by two samples per day after 8 h). The addition of NaOH to raise the pH and halt the reactions ensured the sample composition was preserved for analysis.[19] Templated experiments were conducted in duplicate, and the protein was denatured and removed prior to HPLC-MS/MS analysis.
The tdDCC hits and thus potential MtbIspE binders are amplified in the PT experiment compared to the blank experiment. The first step in the analysis of DCLs is the determination of the equilibrium since the amplification factors need to be calculated when the concentration of products is stable. To determine the evolution of the possible products, it is important to measure the characteristic UV absorbance of the acylhydrazones linker (310 nm) during the HPLC-MS/MS run. The resulting UV peaks are assigned to each product using the MS data (Figures S3–S6). The sum of all peak areas is normalized to 100% in order to obtain the respective relative peak area (RPA) for each product. The RPA values represent relative concentrations, determined at each time point of the blank experiment until the values stabilize. […] However, the rest of the compounds are out of range, making a visual inspection difficult. […] The other three libraries behaved in the same way, reaching equilibrium within 24 h and also maintained stable concentrations beyond (Figures S7–S9). To determine the tdDCC hits, we compared the RPAs of the PT experiments to the blanks at 24 h and set a threshold of at least 50% increase in compound formation. In total, 11 acylhydrazones passed our criteria, with amplification factors ranging from […] to 15.5, qualifying them for resynthesis and further evaluation (Figure 3). During the analysis of chromatograms, challenges arose concerning product identification. Some compound peaks were not neatly separated, forcing us to consider them in clusters, others presented two peaks, likely due to isomers, and were considered separately in our evaluation. Lastly, some compounds were detected by MS, but their respective UV signal interfered with the injection peak or was too low for integration (<1%), both in the blank and PT experiments. Consequently, we excluded these compounds from the analysis (Figure S3–S6).
To a well of a 24-well plate, containing Tris buffer (pH 7.0) were added hydrazides (300 μM each, in DMSO), aldehydes (100 μM each, in DMSO), aniline (20 mM, in DMSO), the protein MtbIspE (25 or 40 μM in Tris buffer at pH 7.0), and an additional amount of DMSO to reach a final concentration of 5% in the DCL with 0.5 mL of end-volume. The DCL was allowed to mix on a plate shaker at room temperature and was frequently monitored via LCMS-MS. For analysis, 30 μL of the corresponding library was mixed with 42 μL acetonitrile and 3 μL of NaOH (1 M), the mixture was centrifuged, and the supernatant was used for the analysis. PT experiments were run in duplicates and the protein was omitted for the blank experiments.
High-resolution mass (HRMS) of final products was determined by HPLC-MS/MS using a Thermo Scientific Q Exactive Focus Orbitrap LC -MS/MS system. All compounds were analyzed for purity by LCMS on Acquity UPLC-SQD system from Waters with a gradient elution of Water (Formic acid 0.1%)/Acetonitrile on an HSS - T3 column (2.1 x 50 mm, Waters), 1.8 µm, at 30°C, PDA detection between 240 -320 nm, and MS detection by simultaneous ES+/ES- ionization in a mass range of 150 -800. The flow is set to 0.9 ml/min, and the […]
gradient time is 1.5 min. […]

T1 sequence (P9WKG7 whole entry): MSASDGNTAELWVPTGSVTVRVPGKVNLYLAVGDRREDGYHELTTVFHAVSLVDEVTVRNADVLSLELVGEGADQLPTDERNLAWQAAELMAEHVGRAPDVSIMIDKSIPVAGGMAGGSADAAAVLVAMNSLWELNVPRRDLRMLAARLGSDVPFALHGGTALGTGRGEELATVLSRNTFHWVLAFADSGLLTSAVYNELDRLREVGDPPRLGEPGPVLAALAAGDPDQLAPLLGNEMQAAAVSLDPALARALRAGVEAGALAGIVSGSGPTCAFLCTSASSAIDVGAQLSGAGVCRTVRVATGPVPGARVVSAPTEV

With `CC(C)Cc1cc(C(=O)N/N=C/c2cc(Cl)ccc2O)[nH]n1` [D1, (E)-N′-(5-Chloro-2-hydroxybenzylidene)-3-isobutyl-1H-pyrazole-5-carbohydrazide] the “solubility in 7H9” value [1] was “insoluble”, the “MtbIspE binding at 20 μM” value (MtbIspE [2]) was “No” and the ΔTm at 20 µM (MtbIspE [3]) was < 0.3 °C. For the same molecule, the inhibition at 50 µM (EcTolC) was 28 ± 11%, the inhibition at 50 µM (EcK12) was 11 ± 4% and the CC50 (HepG2 cells) was 7.9 ± 0.8 µM. For the same molecule, the solubility at 5 min (physchem) was 22 ± 9 µM (≈ 7.06 µg/mL) and the CC50 (in vitro) was < 10 µM.

For `O=C(N/N=C/c1cc(Cl)ccc1O)c1cccc(Cl)c1` [K1, (E)-3-Chloro-N′-(5-chloro-2-hydroxybenzylidene)benzohydrazide], the “Amplification factors (DCL-3)” value (MtbIspE [4]) was 2.0, the “solubility in 7H9” value [1] was “insoluble” and the “MtbIspE binding at 20 μM” value (MtbIspE [2]) was “consistently demonstrated binding across all measurements and Yes”. The ΔTm at 20 µM (MtbIspE [3]) was 0.7 °C, the inhibition at 50 µM (EcK12) was < 10% and the CC50 (HepG2 cells) was 7 ± 3 µM. The solubility at 5 min (physchem) was 25 ± 4 µM (≈ 7.73 µg/mL) and the CC50 (in vitro) was < 10 µM.
